Laboratory results: patent US5591758A, “Organic nitrates, processes for their preparation and their use in the treatment of cardiovascular diseases” (Laboratoires Hoechst, SA, priority 1991, dated 1997)
Structures can show the parent of a compound that is named as a salt.

Columns and labels:
anesthetised dogs = experiment: Haemodynamic effects on anesthetised dogs; format: in vivo, dogs (labrador/harrier cross)
Procedure: Haemodynamic effects of the compounds according to the invention on anesthetised pigs or dogs
The dogs, weighing between 16 and 26 kg, are the progeny of a labrador/harrier cross.
In the case of dogs the anesthesia is induced by sodium pentobarbitol (45 mg/jg i.v.) and maintained with an i.v. perfusion (flow rate of 8 mg/kg/h).
The pigs or dogs are placed under artificial respiration in ambient air. Analysis of the blood gases (pO2, pCO2) is carried out at regular intervals and oxygen can be supplied via the respirator, if necessary.
The haemodynamic parameters recorded include the left ventricular pressure (LVP; Millar PC350 Tip catheter inserted via the carotid artery), systemic blood pressure (BPs, BPd; full catheter in a femoral artery), the end pressure of the left ventricular diastole (LVEDP), the ventricular contractility (LVPdp/dtmax) and the heart rate (HR).
Following an equilibration period of the order of 45 minutes, the compounds studied are administered intraduodenally (i.d.) or intraveinously (i.v.) to several animals (1 to 4). The haemodynamic variables are recorded continuously for 1 to 3 hours, as a function of the period of action of the compound.
The effects of the compounds studied are shown as the absolute difference with respect to the base value (bv) measured before administration of the compounds and are shown in Table VII (a,b,c).
An antianginal activity is estimated by a fall in the BPs and the LVEDP (fall in venous return).

thoracic aorta = experiment: Vasorelaxant effect on isolated vessels (rat thoracic aorta rings without endothelium, precontracted with noradrenalin); parameters: species or system Wistar rats; settings: for Emax: Rattus norvegicus, maximum inhibition of noradrenalin effect, 10^-8 to 10^-4 M substance, read-out: Maximum Relaxation; for IC50: rat aorta, 10^-7 M noradrenalin contraction
Procedure: Vasorelaxant effect of the compounds according to the invention on isolated vessels.
Adult Wistar rats weighing between 250 and 350 g are anaesthetised by intraperitoneal injection of sodium pentobarbital (30 mg/kg). The thoracic aorta is rapidly removed and placed in a refrigerated and oxygenated solution of bicarbonate buffer of the Krebs-Ringer type (composition [mM]: NaCl, 118; KCl, 4.7; CaCl2, 2.5; MgSO4, 1.2; KH2 PO4, 1.2; NaHCO3, 25.0; disodium calcium salt of EDTA, 0.026; glucose 11.1). The aorta is dissected with the aim of removing the connective tissue and then cut into 6 rings (length 5-10 mm). The endothelium is removed by moderate abrasion of the intimal surface of the aortic segments with the aid of a pair of tweezers. These segments are then placed between two hooks in an isolated organ cell filled with 25 ml of bicarbonate buffer (pH 7.4), thermostat-controlled at 37° C. and oxygenated with the aid of a 95% O2 /5% CO2 mixture (pH 7.4). One of the hooks is fixed to a fixed point, while the second is connected to a transducer with the aim of measuring the variations in isometric voltage (expressed in grams). After an equilibration period of 30 min., the segments are progressively withdrawn so as to attain the level of base voltage for which the contractor response to noradrenalin (10^-7 M) is maximum (optimum voltage; average 2 g). The absence of endothelium is verified by addition of a single concentration of acetylcholine (10^-6 M), after precontraction of the vessels by noradrenalin (10^-7 M). The integrity of the vascular smooth muscle is also verified by adding a single concentration of a vasodilator whose response is independent of the presence of the endothelium, SIN-1 (10^-5 M). After this initial procedure, the aortas are washed, equilibrated for a period of 30 min and then recontracted (10^-7 M noradrenalin). The relaxant effect of the substance to be tested is then evaluated by adding increasing concentrations of this substance (from 10^-8 to 10^-4 M). The maximum inhibition of the concentration caused by noradrenalin (expressed as a percentage) is then calculated ("maximum relaxation"). When this maximum relaxation is greater than 50%, the concentration of substance tested producing a 50% inhibition of the maximum contraction (IC50) is calculated. Table V below collates the IC50 and the maximum relaxation percentages for the various compounds tested.

Structure (SMILES)	Emax (thoracic aorta)	IC50 (thoracic aorta)	BPs (min), period of action (anesthetised dogs; dogs, 3 mg/kg i.d.)	BPs, difference to base value (anesthetised dogs; dogs, 3 mg/kg i.d.)	LVEDP (min), period of action (anesthetised dogs; dogs, 3 mg/kg i.d.)	LVEDP, difference to base value (anesthetised dogs; dogs, 3 mg/kg i.d.)	further results
CC(=O)NCSC[C@H](N)C(=O)N[C@H]1CO[C@H]2[C@@H]1OC[C@H]2O[N+](=O)[O-] [Compound 42, S-[(Acetylamino)methyl]-L-cysteine amide of 2-amino-2-deoxy-5-O-nitro-1,4:3,6-dianhydro-D-glucitol monohydrochloride]	92%	33 µM	–	–	–	–	BPs (min), period of action (anesthetised dogs; dogs, 10 mg/kg i.v.): > 90 min; BPs, difference to base value (anesthetised dogs; dogs, 10 mg/kg i.v.): -10 mmHg; LVEDP (min), period of action (anesthetised dogs; dogs, 10 mg/kg i.v.): 0 min; LVEDP, difference to base value (anesthetised dogs; dogs, 10 mg/kg i.v.): 0,0 mmHg
CSCC[C@H](NC(=O)OC(C)(C)C)C(=O)N[C@H]1CO[C@H]2[C@@H]1OC[C@H]2O[N+](=O)[O-] [Compound 43, N-[(t-Butoxy)carbonyl]-L-methionine amide of 2-amino-2-deoxy-5-O-nitro-1,4:3,6-dianhydro-D-glucitol]	80%	32 µM	–	–	–	–	BPs (min), period of action (anesthetised dogs; dogs, 10 mg/kg i.v.): 90 min; BPs, difference to base value (anesthetised dogs; dogs, 10 mg/kg i.v.): -20 mmHg; LVEDP (min), period of action (anesthetised dogs; dogs, 10 mg/kg i.v.): 60 min; LVEDP, difference to base value (anesthetised dogs; dogs, 10 mg/kg i.v.): -1,0 mmHg
O=C(CNC(=O)[C@@H]1CCCN1)N[C@H]1CO[C@H]2[C@@H]1OC[C@@H]2O[N+](=O)[O-] [Compound 49, 5-[[2-[[((2S)-2-pyrrolidinyl)carbonyl]amino]-1-oxoethyl]amino]-5-deoxy-2-O-nitro-1,4:3,6-dianhydro-L-iditol monohydrochloride]	100%	38 µM	–	–	–	–	BPs (min), period of action (anesthetised dogs; dogs, 1,1 mg/kg i.d.): > 240 min; BPs, difference to base value (anesthetised dogs; dogs, 1,1 mg/kg i.d.): -32 mmHg
CC(C)(C)OC(=O)N1CSC[C@H]1C(=O)NCC(=O)N[C@H]1CO[C@H]2[C@@H]1OC[C@@H]2O[N+](=O)[O-] [Compound 60]	53%	87 µM	> 60 min	-15 mmHg	0 min	0,0 mmHg	–
C[C@H](NC(=O)[C@@H]1CSCN1C(=O)OC(C)(C)C)C(=O)N[C@H]1CO[C@H]2[C@@H]1OC[C@@H]2O[N+](=O)[O-] [Compound 61, 5-[[2-[[(3-t-butoxycarbonyl-4-n-thiazolidinyl)carbonyl]amino]-1-((2S)-2-methyl)-oxoethyl]amino]-5-deoxy-2-O-nitro-1,4:3,6-dianhydro-L-iditol]	100%	32 µM	> 180 min	-25 mmHg	> 180 min	-1,5 mmHg	–
C[C@H](NC(=O)[C@@H]1CSCN1)C(=O)N[C@H]1CO[C@H]2[C@@H]1OC[C@@H]2O[N+](=O)[O-] [Compound 62, 5-[[2-[[(4-L-thiazolidinyl)carbonyl]amino]-1-((2S)-2-methyl)-oxoethyl]amino]-5-deoxy-2-O-nitro-1,4:3,6-dianhydro-L-iditol monohydrochloride]	72%	55 µM	> 30 min	-35 mmHg	–	–	–
CC(C)[C@H](NC(=O)[C@@H]1CSCN1C(=O)OC(C)(C)C)C(=O)N[C@H]1CO[C@H]2[C@@H]1OC[C@@H]2O[N+](=O)[O-] [Compound 63, 5-[[2-[[(3-t-butoxycarbonyl-4-L-thiazolidinyl)carbonyl]amino]-1-((2S)-2-isopropyl)-oxoethyl]amino]-5-deoxy-2-O-nitro-1,4:3,6-dianhydro-L-iditol]	70%	70 µM	–	–	–	–	BPs (min), period of action (anesthetised dogs; dogs, 3 mg/kg i.v.): > 60 min; BPs, difference to base value (anesthetised dogs; dogs, 3 mg/kg i.v.): -20 mmHg; LVEDP (min), period of action (anesthetised dogs; dogs, 3 mg/kg i.v.): 60 min; LVEDP, difference to base value (anesthetised dogs; dogs, 3 mg/kg i.v.): -1,0 mmHg
CC(C)[C@H](NC(=O)[C@@H]1CSCN1)C(=O)N[C@H]1CO[C@H]2[C@@H]1OC[C@@H]2O[N+](=O)[O-] [Compound 64, 5-[[2-[[(4-L-thiazolidinyl)carbonyl]amino]-1-((2S)-2-isopropyl)-oxoethyl]amino]-5-deoxy-2-O-nitro-1,4:3,6-dianhydro-L-iditol monohydrochloride]	84%	51 µM	> 180 min	-25 mmHg	150 min	-2,0 mmHg	–
CC(C)(C)OC(=O)N1CSC[C@H]1C(=O)N[C@@H](Cc1ccccc1)C(=O)N[C@H]1CO[C@H]2[C@@H]1OC[C@@H]2O[N+](=O)[O-] [Compound 65, 5-[[2-[[(3-t-butoxycarbonyl-4-L-thiazolidinyl)carbonyl]amino]-1-((2S)-2-benzyl)-oxoethyl]amino]-5-deoxy-2-O-nitro-1,4:3,6-dianhydro-L-iditol]	100%	20 µM	0 min	0 mmHg	30 min	1,0 mmHg	–
CSCC[C@H](NC(=O)[C@@H]1CSCN1C(=O)OC(C)(C)C)C(=O)N[C@H]1CO[C@H]2[C@@H]1OC[C@@H]2O[N+](=O)[O-] [Compound 67, 5-[[2-[[(3-t-butoxycarbonyl-4-L-thiazolidinyl)carbonyl]amino]-1-((2S)-2-(2'-thiomethyl)-ethyl)-oxoethyl]amino]-5-deoxy-2-O-nitro-1,4:3,6-dianhydro-L-iditol]	100%	9 µM	> 90 min	-15 mmHg	> 90 min	-1,5 mmHg	–
CSCC[C@H](NC(=O)[C@@H]1CSCN1)C(=O)N[C@H]1CO[C@H]2[C@@H]1OC[C@@H]2O[N+](=O)[O-] [Compound 68, 5-[[2-[[(4-n-thiazolidinyl)carbonyl]amino]-1-((2S)-2-(2'-thiomethyl)-ethyl)-oxoethyl]amino]-5-deoxy-2-O-nitro-1,4:3,6-dianhydro-L-iditol monohydrochloride]	90%	29 µM	–	–	–	–	BPs (min), period of action (anesthetised dogs; dogs, 1 mg/kg i.d.): > 180 min; BPs, difference to base value (anesthetised dogs; dogs, 1 mg/kg i.d.): -30 mmHg; LVEDP (min), period of action (anesthetised dogs; dogs, 1 mg/kg i.d.): > 180 min; LVEDP, difference to base value (anesthetised dogs; dogs, 1 mg/kg i.d.): -3,0 mmHg
CC(C)(C)OC(=O)N1CSC[C@H]1C(=O)N1CCC[C@H]1C(=O)N[C@H]1CO[C@H]2[C@@H]1OC[C@@H]2O[N+](=O)[O-] [Compound 69, 5-[[[(2S)-N-[(3-t-butoxycarbonyl-4-L-thiazolidinyl)carbonyl]-2-pyrrolidinyl]carbonyl]amino]-5-deoxy-2-O-nitro-1,4:3,6-dianhydro-L-iditol]	87%	42 µM	> 150 min	-40 mmHg	> 150 min	-2,5 mmHg	–
O=C(N[C@H]1CO[C@H]2[C@@H]1OC[C@@H]2O[N+](=O)[O-])[C@@H]1CCCN1C(=O)[C@@H]1CSCN1 [Compound 70, 5-[[[(2S)-N-[(4-L-thiazolidinyl)carbonyl]-2-pyrrolidinyl]carbonyl]amino]-5-deoxy-2-O-nitro-1,4:3,6-dianhydro-L-iditol monohydrochloride]	83%	35 µM	> 90 min	-30 mmHg	0 min	0,0 mmHg	–
O=C(CNC(=O)[C@@H]1CSCN1)N[C@H]1CO[C@H]2[C@@H]1OC[C@H]2O[N+](=O)[O-] [Compound 71, 2-[[2-[[(4-L-thiazolidinyl)carbonyl]]amino]-1-oxoethyl]amino]-2-deoxy-5-O-nitro-1,4:3,6-dianhydro-D-glucitol monohydrochloride]	66%	70 µM	0 min	0 mmHg	> 60 min	-5,5 mmHg	–
